{"source": "patent US20250263496A1", "about": "“Neutrophil-Activating Therapy for the Treatment of Cancer” (The Board of Trustees of the Leland Stanford Junior …, priority 2024, published 2025)", "key": {"B16 cells": {"tested_on": "B16 cells", "experiment": "Mouse in vitro cytotoxicity (EuTDA), B16 cells co-cultured with neutrophils", "type": "cell-based", "conditions": "neutrophils from treated tumors stimulated with neutrophil-activating therapy", "description": "B16 tumors were treated by intratumoral injection of TNF+anti-CD40+anti-gp75 and harvested 12 hours post-treatment. Tumors were dissected away from any surrounding fat, minced, and digested in 5 mg/ml collagenase IV (Worthington) plus 0.1 mg/ml DNase I (Sigma) with continuous mixing by magnetic stir bars for 20 minutes at 37° C. in RPMI-1640 (Gibco) with 2% FBS. Following digestion, tissue was mashed through a […] cell strainer (Falcon) and washed. For some studies, bone marrow was harvested by grinding bones from tumor-naive untreated mice in a mortar and pestle and mashing through a […] strainer (Falcon). Neutrophils were isolated from tumor and bone marrow samples with the MojoSort Mouse Ly6G Selection Kit (BioLegend), according to the manufacturer's instructions, and used in the cytotoxicity assay.\nCytotoxicity assays were conducted using the EuTDA assay from the DELFIA TRF cytotoxicity kit (PerkinElmer) according to the manufacturer's instructions. Briefly, B16 cells were labeled for 10 minutes with BATDA, and 5×10^3 labeled cells were added per well to a 96 well V-bottom plate in RPMI-1640. Neutrophils were added at a ratio of 10:1 unless otherwise stated. All co-cultures were conducted in the presence of TNF (10 ng/ml), anti-CD40 (1 μg/ml), anti-gp75 (1 μg/ml), and 10% active mouse C57BL/6 complement serum (Innovative Research), except where indicated otherwise. Mouse C57BL/6 complement serum was heat-inactivated for 40 minutes at 57° C. where inactivation is specified. In some experiments, mouse IgG2a isotype control (1 μg/ml, isotype control for anti-gp75, clone C1.18.4, Bio X Cell), anti-mouse CD16/CD32 (10 μg/ml, clone 2.4G2, Bio X Cell), recombinant mouse C5a (50 nM, R&D Systems), anti-C5a (25 μg/ml, clone 295108, R&D Systems), rat IgG2a isotype control (25 μg/ml, isotype control for anti-C5a, clone 2A3, Bio X Cell), anti-C5AR1 (5 μg/ml, clone 20/70, BioLegend), rat IgG2b isotype control (5 μg/ml, isotype control for anti-C5AR1, clone LTF-2, Bio X Cell), SC57461A (10 μM, Cayman Chemical), CP-105696 (1 μM, Sigma), topiroxostat (10 μM, MedChem Express), or DMSO (vehicle for SC57461A, CP-105696, and topiroxostat) were added to the wells with the B16 and neutrophils. After 4 hours of co-culture at 37° C., supernatant was taken from the wells, Europium solution was added, and TDA released from lysed B16 cells was detected by […] on a Victor X4 fluorescence microplate reader (PerkinElmer). Percent maximal lysis was determined by calculating the specific release of TDA using the formula: (experimental release−spontaneous release)/(maximum release −spontaneous release), where spontaneous release was determined by wells containing no neutrophils and maximum release was determined by wells with lysis buffer added.\nFor trogocytosis studies investigating transfer of tumor-binding antibody, anti-gp75 labeled with AF647 (clone TA99, Novus Biologicals) was used in place of unlabeled anti-gp75. For studies investigating transfer of B16 cell membrane, DiD′ Solid (ThermoFisher Scientific) was reconstituted in DMSO at 10 mg/ml and diluted to a working solution of 5 μg/ml in serum-free DMEM. B16 cells were labeled in this solution for 20 minutes at 37° C. at 1×10^6 cells/ml. Labeled B16 was washed 3 times in warm media before being added to the co-culture wells with the neutrophils. Following co-culture, flow cytometry was used to identify DiD signal in neutrophils."}, "B16 tumors": {"tested_on": "B16 tumors", "experiment": "Oxidative damage in B16 tumors (DNA/RNA oxidation, oxidized glutathione)", "type": "in vivo, mouse", "conditions": "agent given prior to neutrophil-activating therapy", "description": "Tumors were dissected away from surrounding fat, fixed in 2% paraformaldehyde for 2 hours at 4° C., equilibrated in a 30% sucrose solution at 4° C., and embedded and frozen in O.C.T. Compound (Tissue-Tek). Slides were cut to […] and blocked with 1% BSA and 10% serum matched to the secondary antibody species. […] All parameters that were quantified were acquired with identical microscope settings and adjusted identically in Photoshop, and all adjustments were applied equally across the entire tumor. Quantification was performed in ImageJ, using the wand tool on the overlaid multichannel image to draw a border around the tumor and then measuring the percent area within that border with signal for the channel of the marker quantified.\nDetermination of oxidized glutathione content. […] The percentage of oxidized glutathione was calculated from the reduced glutathione and total glutathione values determined by the kit."}}, "data": [{"smiles": "N#Cc1cc(-c2n[nH]c(-c3ccncc3)n2)ccn1", "note": "[topiroxostat]", "values": [{"measurement": "effect of agent on ex vivo killing of tumor cells by neutrophils", "setting": "B16 cells", "result": "inhibited ex vivo tumor cell killing"}, {"measurement": "effect of agent on oxidation in tumors", "setting": "B16 tumors", "result": "prevented oxidation in tumors"}]}]}
